In US9382254B2, “Compounds and pharmaceutical compositions thereof for the treatment of cystic fibrosis” (Galapagos NV, priority 2013, dated 2016):

Tests used:
Assay type in all cases: cell-based
CFTR ΔF508 mutant [1] = biological target: T1, CFTR ΔF508 mutant (Homo sapiens, UniProt P13569, DEL508-508); assay: YFP-halide influx assay for the CFTR-ΔF508 mutation (384 well, FDSS/μCell); settings: CFBE41o- cells, CFTR-ΔF508, 1×D-PBS, fluorescence after 36 seconds
T1 construct: expressed in transfected cells; host or cells: CFBE41o- (adenoviral transduction)
Outline: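 Potentiator read-out as 1−F/F0, F taken 36 s after iodide addition, EC50 fitted against compound concentration. Cells: CFBE41o- expressing ΔF508 CFTR plus halide-sensitive YFP via adenovirus, rescued by 27 °C for 24 h or 24 h modulator at 37 °C.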

CFTR ΔF508 mutant [2] = biological target: T1, CFTR ΔF508 mutant; assay: YFP-halide influx assay for the CFTR-ΔF508 mutation, PBS buffer (96 well); settings: CFBE41o- cells, forskolin 10.67 μM
Text: The YFP halide influx assay measures the functionality of the cystic fibrosis Transmembrane Conductance regulator (CFTR) channels in the cystic fibrosis bronchial epithelium cell line CFBE41o-. The assay is used to evaluate the capacity of compounds to increase the open probability of existing CFTR channels in the membrane. It makes use of the observation that the yellow fluorescent protein (YFP) variant YFP H148Q, I152L has its fluorescence substantially quenched by halide ions like Cl^− and I^−. (Galietta, Haggie, & Verkman, 2001) (Nagai, et al., 2002)
For this purpose, CFBE41o-cells are seeded in 96 well plates (6000 CFBE cells/well). One day after seeding, the CFBE cells are transduced with adenoviral vectors that direct the expression of the CFTR ΔF508 mutant and of the YFP reporter. Cells are incubated at 27° C., 5% CO2 for 24 hours so as to allow for the proper folding and migration to the membrane of the CFTR channel or treated with a CFTR modulator during 24 hours at 37° C.
The I^− induced quenching of fluorescence is recorded immediately after injection of I^− for 7 seconds. The capacity of a compound to increase the channel opening is directly correlated with the decrease in fluorescence, and is expressed as (1-(fluorescence after 7 seconds (F)/fluorescence before injection (F0))) and an EC50 can be derived from a (1-F/F0) vs compound concentration plot.

CFTR G551D mutant = biological target: T2, CFTR G551D mutant (Homo sapiens, UniProt P13569, G551D); assay: YFP-halide influx assay for the CFTR-G551D mutation; settings: HEK293 cells, forskolin 10.67 μM
T2 construct: expressed in transfected cells; host or cells: HEK293 (reverse transfection with plasmid)
Outline: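 Channel opening potentiation measured as 1−F/F0, where F is YFP fluorescence 7 s after iodide injection and F0 before; EC50 taken from concentration plot. Cells: HEK293 transiently expressing CFTR G551D plus halide-sensitive YFP (H148Q, I152L, F47L), 24 h at 37 °C, 5% CO2.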

CFTR ΔF508 mutant [3] = biological target: T1, CFTR ΔF508 mutant; assay: YFP-halide influx assay for the CFTR-ΔF508 mutation, gluconate buffer; settings: CFBE41o- cells, forskolin 10.67 μM
Outline: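 Channel opening is read as the fall in YFP fluorescence over 7 s following iodide injection, expressed as 1-F/F0 and plotted versus compound concentration to derive EC50. Cells used were CFBE41o- expressing adenoviral ΔF508 CFTR and halide-sensitive YFP, rescued by 24 h at 27 °C or 24 h modulator treatment at 37 °C.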

T2 sequence (P13569 whole entry G551D): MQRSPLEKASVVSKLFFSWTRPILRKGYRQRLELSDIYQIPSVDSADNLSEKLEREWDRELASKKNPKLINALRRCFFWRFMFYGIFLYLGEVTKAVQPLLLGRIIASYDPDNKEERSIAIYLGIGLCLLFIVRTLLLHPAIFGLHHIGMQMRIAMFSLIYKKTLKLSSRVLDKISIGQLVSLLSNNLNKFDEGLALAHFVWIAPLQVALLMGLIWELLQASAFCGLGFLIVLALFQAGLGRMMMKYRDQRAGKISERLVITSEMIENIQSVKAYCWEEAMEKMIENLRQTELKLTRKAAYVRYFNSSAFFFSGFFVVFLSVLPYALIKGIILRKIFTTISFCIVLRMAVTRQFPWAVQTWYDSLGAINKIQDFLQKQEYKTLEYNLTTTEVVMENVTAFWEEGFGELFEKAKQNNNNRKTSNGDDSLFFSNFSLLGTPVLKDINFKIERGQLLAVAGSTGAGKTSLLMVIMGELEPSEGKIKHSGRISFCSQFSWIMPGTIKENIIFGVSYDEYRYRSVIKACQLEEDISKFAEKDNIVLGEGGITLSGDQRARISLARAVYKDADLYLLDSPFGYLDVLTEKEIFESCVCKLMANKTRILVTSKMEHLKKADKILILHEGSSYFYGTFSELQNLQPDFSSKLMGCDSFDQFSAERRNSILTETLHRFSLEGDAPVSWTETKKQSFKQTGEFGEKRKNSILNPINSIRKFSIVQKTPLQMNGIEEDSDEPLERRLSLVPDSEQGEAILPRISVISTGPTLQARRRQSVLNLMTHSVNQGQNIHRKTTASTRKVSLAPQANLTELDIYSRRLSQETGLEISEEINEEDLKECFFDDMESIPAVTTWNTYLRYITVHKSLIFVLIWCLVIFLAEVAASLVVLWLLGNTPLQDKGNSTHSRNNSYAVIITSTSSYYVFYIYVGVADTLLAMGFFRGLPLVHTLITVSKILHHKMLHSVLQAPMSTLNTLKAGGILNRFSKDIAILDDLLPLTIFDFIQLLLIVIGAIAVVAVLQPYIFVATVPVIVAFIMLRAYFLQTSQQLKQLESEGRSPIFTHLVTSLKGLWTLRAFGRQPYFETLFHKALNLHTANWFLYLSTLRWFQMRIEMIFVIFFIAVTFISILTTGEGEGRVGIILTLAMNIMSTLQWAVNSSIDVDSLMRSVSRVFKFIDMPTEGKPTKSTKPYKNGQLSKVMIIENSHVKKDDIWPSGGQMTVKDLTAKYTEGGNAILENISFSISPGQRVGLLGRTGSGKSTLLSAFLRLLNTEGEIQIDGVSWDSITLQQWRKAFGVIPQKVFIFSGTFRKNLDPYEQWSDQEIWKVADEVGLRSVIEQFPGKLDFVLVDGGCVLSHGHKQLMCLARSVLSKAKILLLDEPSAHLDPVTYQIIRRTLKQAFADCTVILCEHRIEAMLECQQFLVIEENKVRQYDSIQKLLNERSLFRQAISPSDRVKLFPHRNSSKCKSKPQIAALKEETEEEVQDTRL
T1 sequence (P13569 with tags, fused parts or gaps DEL508-508): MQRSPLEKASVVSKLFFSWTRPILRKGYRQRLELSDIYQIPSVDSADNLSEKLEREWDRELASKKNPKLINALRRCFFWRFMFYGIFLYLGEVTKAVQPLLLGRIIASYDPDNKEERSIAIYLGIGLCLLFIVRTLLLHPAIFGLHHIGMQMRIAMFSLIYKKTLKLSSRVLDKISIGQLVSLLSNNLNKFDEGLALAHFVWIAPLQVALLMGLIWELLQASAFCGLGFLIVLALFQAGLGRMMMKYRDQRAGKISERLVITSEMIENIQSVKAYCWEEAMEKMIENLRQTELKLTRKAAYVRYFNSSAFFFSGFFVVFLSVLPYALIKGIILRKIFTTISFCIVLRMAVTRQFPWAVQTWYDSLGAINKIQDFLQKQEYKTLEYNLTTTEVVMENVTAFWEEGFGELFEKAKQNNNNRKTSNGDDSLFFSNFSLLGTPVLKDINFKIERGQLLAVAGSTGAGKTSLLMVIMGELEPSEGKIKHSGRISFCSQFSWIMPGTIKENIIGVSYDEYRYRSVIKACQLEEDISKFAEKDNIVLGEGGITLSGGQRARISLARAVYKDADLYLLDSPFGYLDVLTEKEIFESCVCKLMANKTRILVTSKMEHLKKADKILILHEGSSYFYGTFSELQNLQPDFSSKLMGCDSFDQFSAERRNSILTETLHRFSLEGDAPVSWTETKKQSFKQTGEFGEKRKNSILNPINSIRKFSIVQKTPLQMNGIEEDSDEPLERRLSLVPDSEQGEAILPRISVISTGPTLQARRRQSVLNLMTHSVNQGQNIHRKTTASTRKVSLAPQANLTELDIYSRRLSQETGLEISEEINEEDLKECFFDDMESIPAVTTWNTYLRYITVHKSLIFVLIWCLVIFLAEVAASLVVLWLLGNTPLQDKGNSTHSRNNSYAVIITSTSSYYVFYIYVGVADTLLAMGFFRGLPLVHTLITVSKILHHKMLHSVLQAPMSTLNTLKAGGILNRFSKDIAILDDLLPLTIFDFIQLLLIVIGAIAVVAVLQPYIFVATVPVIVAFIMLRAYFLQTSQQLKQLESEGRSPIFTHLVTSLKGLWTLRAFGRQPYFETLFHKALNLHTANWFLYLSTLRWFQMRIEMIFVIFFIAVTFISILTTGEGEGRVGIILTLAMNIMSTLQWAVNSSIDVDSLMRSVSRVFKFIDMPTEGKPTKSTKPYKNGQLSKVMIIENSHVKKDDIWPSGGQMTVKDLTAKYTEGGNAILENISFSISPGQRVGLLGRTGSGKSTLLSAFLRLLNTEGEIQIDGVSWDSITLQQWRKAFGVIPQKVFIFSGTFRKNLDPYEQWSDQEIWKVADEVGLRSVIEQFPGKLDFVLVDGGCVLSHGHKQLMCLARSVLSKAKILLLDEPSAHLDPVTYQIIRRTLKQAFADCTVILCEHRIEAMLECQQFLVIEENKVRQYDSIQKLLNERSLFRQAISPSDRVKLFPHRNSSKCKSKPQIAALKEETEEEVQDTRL

| EC50 (CFTR ΔF508 mutant [1]) [nM] | EC50 (CFTR ΔF508 mutant [2]) [nM] | Structure (SMILES) | also measured |
| --- | --- | --- | --- |
| 87.5 | 94.4 | CC1(C)COCCN1S(=O)(=O)c1cc(C(N)=O)c(NC(=O)c2ccccc2C(F)(F)F)s1 [Compound 260, 5-(3,3-dimethylmorpholinosulfonyl)-2-(2-(trifluoromethyl)benzamido) thiophene-3-carboxamide] |  |
|  | 292 | COC1CCN(S(=O)(=O)c2cc(C(N)=O)c(NC(=O)C3(O)CC3)s2)CC1 [Compound 239, 2-(1-hydroxycyclopropanecarboxamido)-5-(4-methoxypiperidin-1-ylsulfonyl)thiophene-3-carboxamide] |  |
| 76.6 | 46.8 | COc1ccc(CN(C)S(=O)(=O)c2cc(C(N)=O)c(NC(=O)C3(O)CC3)s2)cc1 [Compound 235, 2-(1-hydroxycyclopropanecarboxamido)-5-(N-(4-methoxybenzyl)-N-methylsulfamoyl) thiophene-3-carboxamide] |  |
|  | 727 | CC(C)(O)C(=O)Nc1sc(S(=O)(=O)c2cc(F)ccc2O)cc1C(N)=O [Compound 296, 5-(5-fluoro-2-hydroxyphenylsulfonyl)-2-(2-hydroxy-2-methylpropanamido) thiophene-3-carboxamide] | EC50 (CFTR G551D mutant; class symbol): > 1000 nM |
|  | 197 | NC(=O)c1cc(S(=O)(=O)c2ccc(F)cc2)sc1NC(=O)c1ccc(F)cn1 [Compound 266, N-(3-carbamoyl-5-(4-fluorophenylsulfonyl)thiophen-2-yl)-5-fluoropicolinamide] |  |
|  | 231 | CC(C)=CC(=O)Nc1sc(S(=O)(=O)c2ccc(F)cc2)cc1C(N)=O [Compound 274, 5-(4-fluorophenylsulfonyl)-2-(3-methylbut-2-enamido) thiophene-3-carboxamide] |  |
|  | 611 | CC1CN(S(=O)(=O)c2cc(C(N)=O)c(NC(=O)C3(O)CC3)s2)CCO1 (stereo not drawn) [Compound 240, 2-(1-hydroxycyclopropanecarboxamido)-5-(2-methylmorpholinosulfonyl) thiophene-3-carboxamide] |  |
|  | 2900 | NC(=O)c1cc(S(=O)(=O)c2ccc(F)cc2)sc1NC(=O)c1cccnn1 [Compound 249, N-(3-carbamoyl-5-(4-fluorophenylsulfonyl)thiophen-2-yl)pyridazine-3-carboxamide] |  |
|  | 224 | CC1CN(S(=O)(=O)c2cc(C(N)=O)c(NC(=O)C3(O)CC3)s2)CC(C)O1 (stereo not drawn) [Compound 238, 5-(2,6-dimethylmorpholinosulfonyl)-2-(1-hydroxycyclopropanecarboxamido) thiophene-3-carboxamide] |  |
| 92.4 | 31.9 | COCCN(C1CC1)S(=O)(=O)c1cc(C(N)=O)c(NC(=O)c2ccccc2C(F)(F)F)s1 [Compound 261, 5-(N-cyclopropyl-N-(2-methoxyethyl)sulfamoyl)-2-(2-(trifluoromethyl)benzamido) thiophene-3-carboxamide] |  |
|  | 988 | NC(=O)c1cc(S(=O)(=O)c2ccc(F)cc2)sc1NC(=O)c1cccnc1F [Compound 230, N-(3-carbamoyl-5-(4-fluorophenylsulfonyl)thiophen-2-yl)-2-fluoronicotinamide] |  |
|  | 144 | CC1COCC(C)N1S(=O)(=O)c1cc(C(N)=O)c(NC(=O)c2ccccc2C(F)(F)F)s1 (stereo not drawn) [Compound 259, 5-(3,5-dimethylmorpholinosulfonyl)-2-(2-(trifluoromethyl)benzamido) thiophene-3-carboxamide] |  |
| 108 | 66.3 | CC(C)N(c1ccc(F)cc1)S(=O)(=O)c1cc(C(N)=O)c(NC(=O)C2(O)CC2)s1 [Compound 237, 5-(N-(4-fluorophenyl)-N-isopropylsulfamoyl)-2-(1-hydroxycyclopropanecarboxamido) thiophene-3-carboxamide] |  |
|  | 283 | CC1COCC(C)N1S(=O)(=O)c1cc(C(N)=O)c(NC(=O)C2(O)CC2)s1 (stereo not drawn) [Compound 234, 5-(3,5-dimethylmorpholinosulfonyl)-2-(1-hydroxycyclopropanecarboxamido) thiophene-3-carboxamide] |  |
| 115 | 69.1 | CN(C1CC1)S(=O)(=O)c1cc(C(N)=O)c(NC(=O)c2ccccc2C(F)(F)F)s1 [Compound 262, 5-(N-cyclopropyl-N-methylsulfamoyl)-2-(2-(trifluoromethyl)benzamido) thiophene-3-carboxamide] |  |
|  | 195 | COC(C)(C)C(=O)Nc1sc(S(=O)(=O)c2ccc(F)cc2)cc1C(N)=O [Compound 268, 5-(4-fluorophenylsulfonyl)-2-(2-methoxy-2-methylpropanamido) thiophene-3-carboxamide] |  |
|  | > 1000 | NC(=O)c1cc(S(=O)(=O)c2ccc(F)cc2)sc1NC(=O)c1ccnnc1 [Compound 250, N-(3-carbamoyl-5-(4-fluorophenylsulfonyl)thiophen-2-yl) pyridazine-4-carboxamide] |  |
| 42 |  | CN(Cc1ccc(F)cc1F)S(=O)(=O)c1cc(C(N)=O)c(NC(=O)c2cc[nH]n2)s1 [Compound 172, N-(3-carbamoyl-5-(N-(2,4-difluorobenzyl)-N-methylsulfamoyl)thiophen-2-yl)-1H-pyrazole-3-carboxamide] | EC50 (CFTR G551D mutant): 136 nM; EC50 (CFTR ΔF508 mutant [3]): 15.4 nM |
|  | 3100 | COCCC(=O)Nc1sc(S(=O)(=O)c2ccc(F)cc2)cc1C(N)=O [Compound 229, 5-(4-fluorophenylsulfonyl)-2-(3-methoxypropanamido) thiophene-3-carboxamide] |  |
| 157 | 102 | CC1CN(S(=O)(=O)c2cc(C(N)=O)c(NC(=O)c3ccccc3C(F)(F)F)s2)CC(C)O1 (stereo not drawn) [Compound 258, 5-(2,6-dimethylmorpholinosulfonyl)-2-(2-(trifluoromethyl)benzamido) thiophene-3-carboxamide] |  |
|  | 247 | CC1(C)COCCN1S(=O)(=O)c1cc(C(N)=O)c(NC(=O)C2(O)CC2)s1 [Compound 241, 5-(3,3-dimethylmorpholinosulfonyl)-2-(1-hydroxycyclopropanecarboxamido) thiophene-3-carboxamide] |  |
|  | 653 | NC(=O)c1cc(S(=O)(=O)c2ccc(F)cc2)sc1Nc1ccccn1 [Compound 267, 5-(4-fluorophenylsulfonyl)-2-(pyridin-2-ylamino) thiophene-3-carboxamide] |  |
|  | 1620 | COC1CN(S(=O)(=O)c2cc(C(N)=O)c(NC(=O)C3(O)CC3)s2)C1 [Compound 243, 2-(1-hydroxycyclopropanecarboxamido)-5-(3-methoxyazetidin-1-ylsulfonyl)thiophene-3-carboxamide] |  |
| 83.3 |  | NC(=O)c1cc(S(=O)(=O)N2CCC(F)(F)CC2)sc1NC(=O)c1ccccc1O [Compound 190, 5-(4,4-difluoropiperidin-1-ylsulfonyl)-2-(2-hydroxybenzamido)thiophene-3-carboxamide] | EC50 (CFTR G551D mutant): 278 nM; EC50 (CFTR ΔF508 mutant [3]): 73.9 nM |
| 98.2 |  | CCc1cc(C(=O)Nc2sc(S(=O)(=O)N3CCC(F)(F)CC3)cc2C(N)=O)n[nH]1 [Compound 141, N-(3-carbamoyl-5-(4,4-difluoropiperidin-1-ylsulfonyl)thiophen-2-yl)-5-ethyl-1H-pyrazole-3-carboxamide] | EC50 (CFTR G551D mutant): 258 nM; EC50 (CFTR ΔF508 mutant [3]): 29.7 nM |
|  | 153 | COCCN(C1CC1)S(=O)(=O)c1cc(C(N)=O)c(NC(=O)C2(O)CC2)s1 [Compound 244, 5-(N-cyclopropyl-N-(2-methoxyethyl)sulfamoyl)-2-(1-hydroxycyclopropanecarboxamido) thiophene-3-carboxamide] |  |
